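Dose response: 5 concentrations. Exposure: 48 h. Format: 96-well plates. Endpoint: linear interpolation; highest concentration if not reached. Definition used: TGI = concentration required for complete inhibition of growth.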
How the values were obtained:
Experiment in all cases: inhibition of tumour cell growth, NCI panel, 48 h
[1] = system: SK-MEL-5 melanoma
[2] = system: LOX IMVI melanoma
[3] = system: HCT-15 colon
[4] = system: SF-268 CNS
[5] = system: SNB-19 CNS
[6] = system: U251 CNS
[7] = system: RXF 393 renal
[8] = system: HT29 colon
[9] = system: NCI-H226 lung
[10] = system: SNB-75 CNS
[11] = system: OVCAR-4 ovarian
[12] = system: UACC-62 melanoma
[13] = system: SN12C renal
[14] = system: PC-3 prostate
[15] = system: HOP-62 NSCLC
[16] = system: NCI/ADR-RES ovarian
[17] = system: MOLT-4 leukemia
[18] = system: EKVX NSCLC
[19] = system: NCI-H460 lung
[20] = system: K-562 leukemia
[21] = system: NCI-H23 lung
[22] = system: SK-MEL-28 melanoma
[23] = system: TK-10 renal
[24] = system: UO-31 renal
[25] = system: SR leukemia
[26] = system: 786-0 renal
[27] = system: SK-MEL-2 melanoma
[28] = system: IGROV1 ovarian
[29] = system: MCF7 breast
[30] = system: OVCAR-5 ovarian
[31] = system: UACC-257 melanoma
[32] = system: OVCAR-8 ovarian
[33] = system: KM12 colon
[34] = system: HL-60(TB) leukemia
[35] = system: HS 578T breast
[36] = system: SF-295 CNS
[37] = system: ACHN renal
[38] = system: BT-549 breast
[39] = system: MDA-MB-435
[40] = system: RPMI-8226 leukemia
[41] = system: SF-539 CNS
[42] = system: M14 melanoma
[43] = system: HCC-2998 colon
[44] = system: A549 NSCLC
[45] = system: NCI-H522 lung
[46] = system: CCRF-CEM leukemia
[47] = system: OVCAR-3 ovarian
[48] = system: MALME-3M melanoma
[49] = system: SK-OV-3 ovarian
[50] = system: SW-620 colon
[51] = system: A498 renal
[52] = system: HCT-116 colon
[53] = system: DU-145 prostate
[54] = system: CAKI-1 renal
[55] = system: MDA-MB-231 breast
[56] = system: COLO 205 colon

Compound: OCCCC(O)(c1ccccc1)c1ccccc1
- TGI [1]: > 100 µM
- TGI [2]: > 100 µM
- TGI [3]: > 100 µM
- TGI [4]: > 100 µM
- TGI [5]: > 100 µM
- TGI [6]: > 100 µM
- TGI [7]: > 100 µM
- TGI [8]: > 100 µM
- TGI [9]: > 100 µM
- TGI [10]: > 100 µM
- TGI [11]: > 100 µM
- TGI [12]: > 100 µM
- TGI [13]: > 100 µM
- TGI [14]: > 100 µM
- TGI [15]: > 100 µM
- TGI [16]: > 100 µM
- TGI [17]: > 100 µM
- TGI [18]: > 100 µM
- TGI [19]: > 100 µM
- TGI [20]: > 100 µM
- TGI [21]: > 100 µM
- TGI [22]: > 100 µM
- TGI [23]: > 100 µM
- TGI [24]: > 100 µM
- TGI [25]: > 100 µM
- TGI [26]: > 100 µM
- TGI [27]: > 100 µM
- TGI [28]: > 100 µM
- TGI [29]: > 100 µM
- TGI [30]: > 100 µM
- TGI [31]: > 100 µM
- TGI [32]: > 100 µM
- TGI [33]: > 100 µM
- TGI [34]: > 100 µM
- TGI [35]: > 100 µM
- TGI [36]: > 100 µM
- TGI [37]: > 100 µM
- TGI [38]: > 100 µM
- TGI [39]: > 100 µM
- TGI [40]: > 100 µM
- TGI [41]: > 100 µM
- TGI [42]: > 100 µM
- TGI [43]: > 100 µM
- TGI [44]: > 100 µM
- TGI [45]: > 100 µM
- TGI [46]: > 100 µM
- TGI [47]: > 100 µM
- TGI [48]: > 100 µM
- TGI [49]: > 100 µM
- TGI [50]: > 100 µM

Compound: COC1=CC(=O)N(C(=O)C2CSC(C(CO)NC(=O)c3csc(/C=N/O)n3)=N2)C1 (centres undefined)
- TGI [1]: > 100 µM
- TGI [2]: > 100 µM
- TGI [3]: > 100 µM
- TGI [4]: > 100 µM
- TGI [5]: > 100 µM
- TGI [8]: > 100 µM
- TGI [9]: > 100 µM
- TGI [10]: 91 µM
- TGI [51]: > 100 µM
- TGI [52]: > 100 µM
- TGI [12]: > 100 µM
- TGI [13]: > 100 µM
- TGI [14]: > 100 µM
- TGI [15]: > 100 µM
- TGI [53]: > 100 µM
- TGI [16]: > 100 µM
- TGI [17]: > 100 µM
- TGI [18]: > 100 µM
- TGI [19]: > 100 µM
- TGI [20]: > 100 µM
- TGI [21]: > 100 µM
- TGI [54]: > 100 µM
- TGI [22]: > 100 µM
- TGI [23]: > 100 µM
- TGI [25]: > 100 µM
- TGI [26]: > 100 µM
- TGI [27]: > 100 µM
- TGI [28]: > 100 µM
- TGI [55]: > 100 µM
- TGI [29]: > 100 µM
- TGI [30]: > 100 µM
- TGI [31]: > 100 µM
- TGI [32]: > 100 µM
- TGI [33]: > 100 µM
- TGI [34]: > 100 µM
- TGI [35]: > 100 µM
- TGI [36]: > 100 µM
- TGI [37]: > 100 µM
- TGI [38]: > 100 µM
- TGI [39]: > 100 µM
- TGI [40]: > 100 µM
- TGI [41]: > 100 µM
- TGI [42]: > 100 µM
- TGI [56]: > 100 µM
- TGI [46]: > 100 µM
- TGI [47]: > 100 µM
- TGI [48]: > 100 µM
- TGI [49]: > 100 µM
- TGI [50]: > 100 µM

Source: PubChem BioAssay (NCI)
